As usually defined, the IC50 is the concentration needed to halve the response being measured. As a reminder, the melting point is the temperature, or range, at which the solid turns liquid.

These results are taken from PMC6882462 (Journal of Enzyme Inhibition and Medicinal Chemistry, 2019).

Read-outs that look alike come from different tables or passages of the source.

For data set [1], the system named is human breast carcinoma cell line MCF-7. Put plainly: MTT antiproliferative assay against MCF-7. The format is cell-based. The settings on record: read-out: IC50 (anticancer activity against MCF-7 cell line). As for the experimental part: All the synthesised naphthalene-chalcone derivatives 3a–3t were evaluated for their anticancer activity by 3-[4,5-dimethylthiazole-2-yl]-2,5-diphenyltetrazolium bromide (MTT) assay method against human breast carcinoma cell line MCF-7. Cisplatin was used as a reference drug. […]. […]
culture, the culture medium was removed, and cells were incubated with tetrazolium dye [3-(4,5-dimethylthiazol-2-yl)-2,5-diphenyltetrazo-lium bromide (MTT) solution for 4 h. Then, the supernatant was removed and the precipitates (formazan crystal) were […]
dissolved in DMSO. […]
For orientation: Formazan colour is commonly taken as a measure of viable cells.

The nature of data set [2]: in vitro. The settings on record: human.
In data set [3] the test system is tubulin. The experiment in a line: In vitro tubulin polymerisation inhibitory assay. The format is biochemical. As for the experimental part: 1.3 In vitro tubulin polymerization assay
To evaluate the eﬀect of the compound 3a on tubulin assembly in vitro, varying
DMSO were incubated with purified tubulin protein in PEM buffer [100 mM PIPES
(1,4-Piperazinediethanesulfonic acid), 1 mM MgCl2, and 1 mM EGTA(ethylene glycol
tetraacetic acid)] containing 1 mM GTP and 5 % glycerol. […]

Data set [4] concerns MCF-7 cells. The experiment in a line: Cell cycle analysis by flow cytometry (PI). The settings on record: 2.0 µM, 24 h. The format is cell-based, human. The source says:
Many studies have reported that tubulin polymerisation inhibitors can arrest cancer cells in G2/M phase and lead to apoptosis[24]^,[25]. The potent tubulin polymerisation inhibitory activity of compound 3a promoted us to further investigate its cellular mechanisms of action in MCF-7 cancer cells by using flow cytometry analysis. In order to elucidate the molecular mechanism of compound 3a, we first studied its effect on cell cycle progression in MCF-7 cells. […] In contrast, after treatment of MCF-7 cells with compound 3a at concentrations of 2.0 µM, the accumulation of cancer cells was detected at G2/M phase by 5.5 folds compared to the control group, from 15.19% in the control group to 84.55% in the compound 3a treated group (Figure 4). […]
MCF-7 cells were seeded in 6-well plates and incubated at 37 °C for overnight and treatment with DMSO or compound 3a (0.5, 2.0 and 10.0 μM) for 24 h. The cells were washed twice with PBS, and incubated for 0.5 h at 37 °C in a PBS solution containing 1 mg/mL RNase A and propidium iodide (PI). C ell cycle was analyzed by flow cytometry (TASC240, USA).
Background: A flow cytometer gives signals particle by particle.

Data set [5] concerns MCF-7 cells. The experiment in a line: Annexin V FITC/PI apoptosis assay. The format is cell-based, human. The settings on record: 2.0 µM, 24 h. As for the experimental part: To investigate whether compound 3a could induces apoptosis, the apoptotic effect of compound 3a and DMSO (control) were evaluated by an annexin V FITC/PI (AV/PI) dual staining assay. After treatment MCF-7 cells with compound 3a at the concentration of 2.0 µM for 24 h, the cells were labelled with the two dyes and analysed by flow cytometry. […] In addition, an increase in the early/primary apoptosis was also observed from 1.85% to 20.0% (Figure 4).
MCF-7 cells were grown in 6-well plates and treated with compound 3a (0.5, 2.0 and
10.0 μM) or DMSO for 24 h. After treatment, the cells were collected and stained with
PI (propidium iodide) for 20 min. Apoptosis was analyzed using a flow cytometer. […]

Data set [6] concerns xenografted tumour. The arrangement: method as in PMID 24308485. The note with it: cited from earlier work.
For data set [7], the system named is SW620 colon cancer cells. The arrangement: method as in PMID 25193463. The note with it: cited from earlier work.

Turning to `COc1ccc(/C=C/C(=O)c2c(OC)ccc3ccccc23)cc1N` [3t], the IC50 in data set [1] (Homo sapiens, MCF7, 48 h) is 2.75 ± 0.26 µM.

On to `COc1ccc(/C=C/C(=O)c2c(OC)ccc3ccccc23)cc1[N+](=O)[O-]` [3i], for which the melting point lay within 157 to 159 °C. In addition, in data set [1] (Homo sapiens, MCF7, 48 h), the IC50 stood at 7.82 ± 0.35 µM.

The molecule `CCN(CC)c1ccc(/C=C/C(=O)c2c(OC)ccc3ccccc23)cc1` [3s] showed a melting point of 142 to 144 °C. For the same molecule, the IC50 in data set [1] (Homo sapiens, MCF7, 48 h) was found to be 7.62 ± 0.3 µM.

As to `COc1ccc2ccccc2c1C(=O)/C=C/c1ccc(Br)cc1` [3b], the melting point lay within 127 to 129 °C. Also, in data set [1] (Homo sapiens, MCF7, 48 h), the IC50 amounted to 4.1 ± 0.25 µM.

In the case of `COc1ccc2ccccc2c1C(=O)/C=C/c1ccc(N(C)C)cc1` [3r], the melting point was 147 to 148 °C. Also, in data set [1] (Homo sapiens, MCF7, 48 h), the IC50 stood at 8.91 ± 0.52 µM.

Consider `COc1ccc2ccccc2c1C(=O)/C=C/c1cccc(F)c1` [3o], for which the melting point lay in the range of 142 to 143 °C. Besides, the IC50 in data set [1] (Homo sapiens, MCF7, 48 h) came to 7.11 ± 0.47 µM.

For `COc1ccc(/C=C/C(=O)c2c(OC)ccc3ccccc23)cc1O` [3a], the IC50 amounted to 18.3 ± 1.3 µM in data set [2]; 1.42 ± 0.15 µM in data set [1] (Homo sapiens, MCF7, 48 h); 8.4 µM in data set [3] (purified tubulin, absorbance 340 nm, read-out: IC50 tubulin polymerisation inhibition). Further, the “inhibition of tubulin polymerisation” value in data set [3] (3.0 µM) was 21%; in data set [3] (6.0 µM), 41%; in data set [3] (12.5 µM) it was 60%; in data set [3] (25 µM) it was 82%. For the same molecule, the “accumulation of cells at G2/M phase compared to control” value in data set [4] was 5.5 folds. The “cells in G1 phase” value in data set [4] was 0.04%. Also, in data set [4], the “cells in S phase” value is given as 15.41%. Also, in data set [4] (control 15.19%), the “cells in G2/M phase” value was determined as 84.55%. In addition, in data set [5], the Q1 cell fraction is recorded as 1.95%. The same molecule gave a Q4 cell fraction in data set [5] of 71.7%. Besides, the “late/secondary cellular apoptosis (Q2)” value in data set [5] (control 0.68%) is 6.34%. For the same molecule, the “early/primary apoptosis (Q3)” value in data set [5] (control 1.85%) was 20.0%.

`COc1cc(OC)c(OC)cc1/C=C/C(=O)c1c(OC)ccc2ccccc12` [3l] gave a melting point of 147 to 149 °C. The IC50 in data set [1] (Homo sapiens, MCF7, 48 h) was 7.68 ± 0.32 µM.

The molecule `COc1ccccc1/C=C/C(=O)c1c(OC)ccc2ccccc12` [3q] registered a melting point of 124 to 126 °C. Also, the IC50 in data set [1] (Homo sapiens, MCF7, 48 h) stood at 7.67 ± 0.39 µM.

Turning to `COc1ccc2ccccc2c1C(=O)/C=C/c1cccs1` [3j], the melting point fell in the range of 149 to 150 °C. Further, the IC50 in data set [1] (Homo sapiens, MCF7, 48 h) was > 10 µM.

For `COc1ccc2ccccc2c1C(=O)/C=C/c1cccc2ccccc12` [3e], the melting point lay in the range of 162 to 163 °C. For the same molecule, the IC50 in data set [1] (Homo sapiens, MCF7, 48 h) was 7.13 ± 0.33 µM.

`COc1ccc2ccccc2c1C(=O)/C=C/c1ccc2ccccc2c1` [3f] registered a melting point of 107 to 109 °C. For the same molecule, in data set [1] (Homo sapiens, MCF7, 48 h), the IC50 was 6.87 ± 0.26 µM.

`COc1ccc2ccccc2c1C(=O)/C=C/c1ccccc1` [3n] displayed a melting point of 142 to 144 °C. Besides, the IC50 in data set [1] (Homo sapiens, MCF7, 48 h) was determined as 7.62 ± 0.36 µM.

Turning to `COc1cc(/C=C/C(=O)c2c(OC)ccc3ccccc23)cc(OC)c1OC` [3p], the melting point was in the range of 113 to 114 °C. In data set [1] (Homo sapiens, MCF7, 48 h), the IC50 was 7.23 ± 0.38 µM.

In the case of `COc1ccc2ccccc2c1C(=O)/C=C/c1ccccc1F` [3m], the IC50 in data set [1] (Homo sapiens, MCF7, 48 h) came to 6.66 ± 0.27 µM.

`COc1ccc(/C=C/C(=O)c2c(OC)ccc3ccccc23)cc1Br` [3g] had a melting point of 168 to 169 °C. Also, in data set [1] (Homo sapiens, MCF7, 48 h), the IC50 was found to be 7.11 ± 0.4 µM.

Take `COc1ccc(C(=O)/C=C/c2cccc3ccccc23)c(O)c1` [HymnPro, 2-hydroxy-4-methoxy-2′,3′-benzochalcone]: the “effect on xenografted tumour growth” value in data set [6] is given as “suppressed xenografted tumour growth”.

In turn, `COc1ccc2ccccc2c1C(=O)/C=C/c1ccc(Cl)cc1` [3k] displayed a melting point of 142 to 143 °C. Besides, the IC50 in data set [1] (Homo sapiens, MCF7, 48 h) was 4.74 ± 0.19 µM.

Turning to `N.N.[Cl][Pt][Cl]` [Cisplatin, reference compound], the IC50 in data set [1] (48 h) came out at 15.2 ± 1.27 µM.

For the molecule `COc1cc(OC)c(/C=C/C(=O)c2c(O)ccc3ccccc23)c(OC)c1` [HMNC-74], in data set [7], the inhibition of clonogenicity result is recorded as “strongly inhibited”.

Take `COc1ccc(/C=C/C(=O)c2c(OC)ccc3ccccc23)c(OC)c1OC` [3c]: the melting point lay within 107 to 108 °C. The IC50 in data set [1] (Homo sapiens, MCF7, 48 h) was > 10 µM.

In turn, `COc1cccc(/C=C/C(=O)c2c(OC)ccc3ccccc23)c1` [3h] registered a melting point of 109 to 110 °C. In data set [1] (Homo sapiens, MCF7, 48 h), the IC50 was determined as 6.67 ± 0.25 µM.

In the case of `COc1ccc2ccccc2c1C(=O)/C=C/c1ccccc1Br` [3d], the melting point lay in the range of 150 to 152 °C. Moreover, the IC50 in data set [1] (Homo sapiens, MCF7, 48 h) came to 7.63 ± 0.45 µM.
